Measurements: publication PMC9090415, “Discovery of small molecule inhibitors of Plasmodium falciparum apicoplast DNA polymerase” (Journal of Enzyme Inhibition and Medicinal Chemistry, 2022)

Target: P. falciparum apicoplast DNA polymerase (Pf-apPOL) (Plasmodium falciparum, UniProt Q8ILY1)
Experiment: Fluorescence-based high-throughput DNA polymerase assay (molecular beacon), primary screen and dose-response
Assay type: biochemical
Protocol: The HT assay employs a molecular beacon, a stem-loop DNA template with a Cy3 dye and the Black Hole Quencher on the 3′ and 5′ ends of the DNA, respectively. Pf-apPOL concentration is based on a calculated absorptivity of ε280 = 56750 M^−1 cm^−1. Reactions were carried out at 25 °C, using Corning 3575 […] (well-volume, 20 µL). Assays testing for compound inhibition composed of reaction buffer (pH 7.9 in 50 mM potassium acetate, 20 mM Tris-acetate and 10 mM magnesium acetate), Pf-apPOL (20 nM), DNA substrate (20 nM), dNTPs (6 µM), and compound (10 µM in DMSO). The DNA and nucleotide substrates (dNTPs) were at concentrations of 20 nM and 6 µM, respectively, in the assay. Pf-apPOL was incubated in the reaction buffer with dNTPs and the compound of interest (10 µM, in the assay) at 25 °C for 10 min. The DNA substrate was then added and the reaction was allowed to proceed for 90 min at 25 °C.
Each assay plate contained 16 negative controls (no Pf-apPOL, DMSO present) and 16 positive controls (Pf-apPOL present, no DMSO). The fluorescence of each well was determined using a BioTek Synergy Neo fluorescence plate reader using excitation and emission wavelengths of 555 and 570 nm, respectively.
In the above, Min is the average of fluorescence emission of the negative controls (substrate only), Max the average fluorescence emission from the positive controls (enzyme + substrate), and Test the emission from the assays in the presence of compounds (enzyme + compound + substrates). […] […] The IC50 of each compound was determined using Equation (2): (2) IC50= Vmax/(1+ (I/IC50)^n)
In the above, n measures cooperativity, with n > 1 indicating synergistic binding of more than a single molecule of the compound.
To identify apPOL inhibitors we utilised our previously developed high-throughput DNA polymerase assay. The HT assay is based on a molecular beacon DNA template that forms a stem-loop with a Cy3 dye and the Black Hole Quencher on the 3′ and 5′ ends of the DNA, respectively. DNA polymerase activity extends an annealed primer through the stem region, displacing the fluorophore from the quencher, thereby increasing its fluorescence (Figure 1(A)). The assay accurately recapitulates the kinetic behaviour of apPOL, as measured through more conventional low-throughput gel-based assays. The Z′ factor for the assay described here was 0.9 across all plates (data not shown).
Figure 1. High-throughput screening. (A) The fluorescent-based DNA polymerase assay used to screen the compound libraries. The DNA template strand is a hairpin loop with a primer annealed to the loop. The 3’ end of the primer is 11 bases away from the 6 bp duplex. Strand displacement activity of the DNA polymerase separates the Cy3 dye from the Black hole quencher leading to an increase in fluorescent signal. (B) The high-throughput assay workflow. The DNA polymerase is incubated with […] compound for 10 min prior to addition of the hairpin substrate. The reaction is quenched at 3 different time points and the fluorescent signal is measured and % inhibition is determined using the provided equation.

[1] = DRC-1; concentration 80 (unit not given); 10'
[2] = primary screen value of the 186 hits; unit not given; 90 min, 10 µM
[3] = primary screen value; head prints only 'DNA Pol'; 90 min, 10 µM
[4] = supplemental file 2, sheet IC50 nontoxic compounds; Pf-apPOL

Chain of P. falciparum apicoplast DNA polymerase (Pf-apPOL) (Q8ILY1 entry or part of it): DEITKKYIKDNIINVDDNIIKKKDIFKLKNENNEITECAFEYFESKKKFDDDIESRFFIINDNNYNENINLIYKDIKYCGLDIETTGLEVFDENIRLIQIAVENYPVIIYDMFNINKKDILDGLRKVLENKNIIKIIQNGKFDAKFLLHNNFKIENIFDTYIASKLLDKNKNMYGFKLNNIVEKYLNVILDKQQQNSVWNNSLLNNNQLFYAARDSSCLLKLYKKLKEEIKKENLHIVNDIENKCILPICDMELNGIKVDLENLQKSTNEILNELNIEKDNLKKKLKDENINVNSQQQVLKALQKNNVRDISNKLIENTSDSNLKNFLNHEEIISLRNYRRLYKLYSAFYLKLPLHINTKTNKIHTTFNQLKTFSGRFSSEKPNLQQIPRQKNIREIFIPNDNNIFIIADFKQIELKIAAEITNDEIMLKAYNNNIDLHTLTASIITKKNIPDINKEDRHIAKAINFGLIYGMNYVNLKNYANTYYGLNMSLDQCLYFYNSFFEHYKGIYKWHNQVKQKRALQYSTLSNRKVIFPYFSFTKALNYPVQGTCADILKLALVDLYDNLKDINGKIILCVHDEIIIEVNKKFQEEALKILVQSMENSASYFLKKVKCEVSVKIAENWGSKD

O=C(O)c1nc(-c2ccccc2)nc2c1OCO2 [Molecule 45, OC(=O)c1nc(nc2c1OCO2)c1ccccc1]
% inhibition Apo pol 10' (DRC-1; concentration 2.5; 10'): 6.785%
% inhibition Apol 90' (DRC-1; concentration 2.5; 90'): -0.7182%
% inhibition apPOL 180' (DRC-1; concentration 2.5; 180'): -6.279%
% inhibition Apo pol 10' (DRC-1; concentration 5; 10'): 18.6858%
% inhibition Apol 90' (DRC-1; concentration 5; 90'): 2.776%
% inhibition apPOL 180' (DRC-1; concentration 5; 180'): -4.7971%
% inhibition Apo pol 10' (DRC-1; concentration 10; 10'): 46.4099%
% inhibition Apol 90' (DRC-1; concentration 10; 90'): 22.6615%
% inhibition apPOL 180' (DRC-1; concentration 10; 180'): 10.4504%
% inhibition Apo pol 10' (DRC-1; concentration 20; 10'): 71.5187%
% inhibition Apol 90' (DRC-1; concentration 20; 90'): 46.4112%
% inhibition apPOL 180' (DRC-1; concentration 20; 180'): 26.9983%
% inhibition Apo pol 10' (DRC-1; concentration 40; 10'): 89.2051%
% inhibition Apol 90' (DRC-1; concentration 40; 90'): 75.6472%
% inhibition apPOL 180' (DRC-1; concentration 40; 180'): 64.3043%
% inhibition Apo pol 10' [1]: 95.8219%
% inhibition Apol 90' (DRC-1; concentration 80; 90'): 92.7909%
% inhibition apPOL 180' (DRC-1; concentration 80; 180'): 90.3482%
% inhibition Apol 40' (DRC-2; 40'; concentration 2.5): 7%
% inhibition Apol 40' (DRC-2; 40'; concentration 10): 34%
% inhibition Apol 40' (DRC-2; 40'; concentration 40): 69%
% inhibition ApPOL 90' (DRC-2; 90'; concentration 5): 7%
% inhibition ApPOL 90' (DRC-2; 90'; concentration 40): 69%
% inhibition apPOL 180' (DRC-2; 180'; concentration 20): 34%
% inhibition Apo pol 5' (DRC-2; concentration 2.5; 5'): 13%
% inhibition Apol 40' (DRC-2; concentration 2.5; 40'): 7%
% inhibition ApPOL 90' (DRC-2; concentration 2.5; 90'): 4%
% inhibition apPOL 180' (DRC-2; concentration 2.5; 180'): -1.61%
% inhibition Apo pol 5' (DRC-2; concentration 5; 5'): 24%
% inhibition Apol 40' (DRC-2; concentration 5; 40'): 14%
% inhibition ApPOL 90' (DRC-2; concentration 5; 90'): 7%
% inhibition apPOL 180' (DRC-2; concentration 5; 180'): -1.28%
% inhibition Apo pol 5' (DRC-2; concentration 10; 5'): 42%
% inhibition Apol 40' (DRC-2; concentration 10; 40'): 34%
% inhibition ApPOL 90' (DRC-2; concentration 10; 90'): 27%
% inhibition apPOL 180' (DRC-2; concentration 10; 180'): 17%
% inhibition Apo pol 5' (DRC-2; concentration 20; 5'): 50%
% inhibition Apol 40' (DRC-2; concentration 20; 40'): 51%
% inhibition ApPOL 90' (DRC-2; concentration 20; 90'): 45%
% inhibition apPOL 180' (DRC-2; concentration 20; 180'): 34%
% inhibition Apo pol 5' (DRC-2; concentration 40; 5'): 58%
% inhibition Apol 40' (DRC-2; concentration 40; 40'): 69%
% inhibition ApPOL 90' (DRC-2; concentration 40; 90'): 69%
% inhibition apPOL 180' (DRC-2; concentration 40; 180'): 68%
% inhibition Apo pol 5' (DRC-2; concentration 80; 5'): 60%
% inhibition Apol 40' (DRC-2; concentration 80; 40'): 77%
% inhibition ApPOL 90' (DRC-2; concentration 80; 90'): 80%
% inhibition apPOL 180' (DRC-2; concentration 80; 180'): 82%
DNA Pol [2]: 34
DNA Pol [3]: 34

Cc1cccc(NC(=O)Cn2ccc3c(=O)[nH]ccc32)c1C [Molecule 11]
IC50 [4]: 7.57 µM

CN1CC(=Cc2ccco2)C(=O)C(=Cc2ccco2)C1 [Molecule 65]
IC50 [4]: 7.51 µM

Cc1nc2c(oc3nc(-c4ccco4)c4c(c32)CC(C)(C)OC4)c(-c2ccccc2)c1C(=O)O [Molecule 86]
IC50 [4]: 7.41 µM

O=C1c2ccccc2C(=O)c2c1oc1c3c(ccc21)OCN(C1CCCC1)C3 [KU0064306]
% inhibition Apo pol 10' (DRC-1; concentration 2.5; 10'): 14.122%
% inhibition Apol 90' (DRC-1; concentration 2.5; 90'): 11.9333%
% inhibition apPOL 180' (DRC-1; concentration 2.5; 180'): 9.893%
% inhibition Apo pol 10' (DRC-1; concentration 5; 10'): 20.6805%
% inhibition Apol 90' (DRC-1; concentration 5; 90'): 18.9077%
% inhibition apPOL 180' (DRC-1; concentration 5; 180'): 20.5988%
% inhibition Apo pol 10' (DRC-1; concentration 10; 10'): 48.1868%
% inhibition Apol 90' (DRC-1; concentration 10; 90'): 43.2395%
% inhibition apPOL 180' (DRC-1; concentration 10; 180'): 45.5926%
% inhibition Apo pol 10' (DRC-1; concentration 20; 10'): 73.389%
% inhibition Apol 90' (DRC-1; concentration 20; 90'): 72.2655%
% inhibition apPOL 180' (DRC-1; concentration 20; 180'): 74.7554%
% inhibition Apo pol 10' (DRC-1; concentration 40; 10'): 87.7037%
% inhibition Apol 90' (DRC-1; concentration 40; 90'): 89.2086%
% inhibition apPOL 180' (DRC-1; concentration 40; 180'): 90.8162%
% inhibition Apo pol 10' [1]: 89.3485%
% inhibition Apol 90' (DRC-1; concentration 80; 90'): 90.7443%
% inhibition apPOL 180' (DRC-1; concentration 80; 180'): 92.3974%
% inhibition Apo pol 5' (DRC-2; 5'; concentration 5): 23%
% inhibition Apo pol 5' (DRC-2; 5'; concentration 40): 47%
% inhibition Apol 40' (DRC-2; 40'; concentration 2.5): 17%
% inhibition Apol 40' (DRC-2; 40'; concentration 80): 60%
% inhibition ApPOL 90' (DRC-2; 90'; concentration 2.5): 17%
% inhibition ApPOL 90' (DRC-2; 90'; concentration 10): 47%
% inhibition ApPOL 90' (DRC-2; 90'; concentration 20): 60%
% inhibition apPOL 180' (DRC-2; 180'; concentration 5): 23%
% inhibition apPOL 180' (DRC-2; 180'; concentration 10): 47%
% inhibition Apo pol 5' (DRC-2; concentration 2.5; 5'): 16%
% inhibition Apol 40' (DRC-2; concentration 2.5; 40'): 17%
% inhibition ApPOL 90' (DRC-2; concentration 2.5; 90'): 17%
% inhibition apPOL 180' (DRC-2; concentration 2.5; 180'): 15%
% inhibition Apo pol 5' (DRC-2; concentration 5; 5'): 23%
% inhibition Apol 40' (DRC-2; concentration 5; 40'): 24%
% inhibition ApPOL 90' (DRC-2; concentration 5; 90'): 25%
% inhibition apPOL 180' (DRC-2; concentration 5; 180'): 23%
% inhibition Apo pol 5' (DRC-2; concentration 10; 5'): 42%
% inhibition Apol 40' (DRC-2; concentration 10; 40'): 46%
% inhibition ApPOL 90' (DRC-2; concentration 10; 90'): 47%
% inhibition apPOL 180' (DRC-2; concentration 10; 180'): 47%
% inhibition Apo pol 5' (DRC-2; concentration 20; 5'): 43%
% inhibition Apol 40' (DRC-2; concentration 20; 40'): 55%
% inhibition ApPOL 90' (DRC-2; concentration 20; 90'): 60%
% inhibition apPOL 180' (DRC-2; concentration 20; 180'): 63%
% inhibition Apo pol 5' (DRC-2; concentration 40; 5'): 47%
% inhibition Apol 40' (DRC-2; concentration 40; 40'): 62%
% inhibition ApPOL 90' (DRC-2; concentration 40; 90'): 68%
% inhibition apPOL 180' (DRC-2; concentration 40; 180'): 72%
% inhibition Apo pol 5' (DRC-2; concentration 80; 5'): 44%
% inhibition Apol 40' (DRC-2; concentration 80; 40'): 60%
% inhibition ApPOL 90' (DRC-2; concentration 80; 90'): 65%
% inhibition apPOL 180' (DRC-2; concentration 80; 180'): 70%
DNA Pol [2]: 61
DNA Pol [3]: 61

Cc1ccccc1C(=O)N1CCc2c(nc3cc(-c4ccccc4)[nH]n3c2=O)C1 [Molecule 41]
IC50 [4]: 12.4 µM
